Assay results taken from US10858364B2, “Imidazopyrazine inhibitors of Bruton's tyrosine kinase” (Acerta Pharma B.V., priority 2016, dated 2020).

Key:
anti-IgM-induced CD69 = test: Human PBMC anti-IgM-induced CD69 assay; type: cell-based; conditions: CD19+ B cells, 2 h compound, 18 h anti-IgM, read-out: hPBMC: anti-IgM-induced CD69 EC50
Procedure: Whole blood was collected in heparin-coated Vacutainer tubes (BD Biosciences, San Jose, Calif.) and used for isolation of PBMCs using Ficoll-Hypaque (Pharmacia, Uppsala, Sweden). Isolated PBMCs were cryopreserved in 90% FCS/10% DMSO until later use.
Cells from cryogenic storage were thawed in a 37° C. water bath, diluted with RPMI/1% FCS, washed 2 times, and then plated at 2×10^5 cells per well in RPMI/10% FCS in 96 well plates.
Serial dilutions […] from 10 mM to 316 nM of test compounds are made in 100% DMSO, followed by a 100-fold dilution into RPMI/1% FCS. For each well, 10 μL was then transferred to the deep well plate containing 90 μL of PBMC cells. […]
Following stimulation with anti-IgM, PBMCs were incubated on ice for 30 min with anti-CD69-FITC, anti-CD19-BV421 (BD Biosciences #555530 and #562440, respectively) and 7AAD (Life Technologies # A1310). Flow cytometry was performed and fluorescence values were obtained from the CD69-FITC channel in CD19+ gated life B cells. EC50 values are determined by curve fitting of the experimental results using GraphPad Prism.
PBMC assay: Cryopreserved PBMC were thawed, washed, and suspended at 2×10^5 cells/well in RPMI+10% FBS in 96-well plates. […] EC50 values were determined by curve fitting of the experimental results using Dotmatics. […]

anti-IgD-induced CD69 = test: Human whole blood anti-IgD-induced CD69 assay; type: cell-based; conditions: B-cell, CD19+ B cells, 18h anti-IgD, read-out: hWB: anti-IgD-induced CD69 EC50
Procedure: WB assay: Forty-five μL blood was diluted 1:1 in RPMI+1% FBS and incubated with test compound, as described above. Blood cells were stimulated with 10 μg/mL mouse anti-human anti-IgD antibody (BD Biosciences, final concentration in assay 10 μg/mL) and incubated for 18h. Cells were stained with CD69-FITC, CD86-PE, and CD19-BV421 (BD Biosciences) for 15 minutes at room temperature, followed by RBCs lysis with FACS Lysing Solution (BD Biosciences). Cells were washed 3 times with 1 mL/well PBS+0.5% BSA, followed by flow cytometric analyses. Median fluorescence intensity values for CD69 were obtained from the CD19+B lymphocyte gate using FCSExpress analyses software (De Novo Software). EC50 values were determined by curve fitting of the experimental results using Dotmatics.
The potency of BTK inhibitors in primary B cells can be assessed in assays that evaluate functional changes after BCR-activation in the presence of inhibitor. Inhibition of specific phosphorylated epitopes on signaling proteins and more distal measures of BCR activation such as increased expression of CD86 (B7-2) and CD69 on the cell surface can be measured by flow cytometry (see Report R2013003A). In this study, effects of M27 on CD69 expression were assessed.

CYP3A4 = test: CYP induction, CYP3A4; type: in vitro ADME
CYP2C19 = CYP2C19 (Homo sapiens (Human), UniProt P33261); test: CYP inhibition, CYP2C19; type: in vitro ADME
Sequence of CYP2C19 (P33261 whole entry): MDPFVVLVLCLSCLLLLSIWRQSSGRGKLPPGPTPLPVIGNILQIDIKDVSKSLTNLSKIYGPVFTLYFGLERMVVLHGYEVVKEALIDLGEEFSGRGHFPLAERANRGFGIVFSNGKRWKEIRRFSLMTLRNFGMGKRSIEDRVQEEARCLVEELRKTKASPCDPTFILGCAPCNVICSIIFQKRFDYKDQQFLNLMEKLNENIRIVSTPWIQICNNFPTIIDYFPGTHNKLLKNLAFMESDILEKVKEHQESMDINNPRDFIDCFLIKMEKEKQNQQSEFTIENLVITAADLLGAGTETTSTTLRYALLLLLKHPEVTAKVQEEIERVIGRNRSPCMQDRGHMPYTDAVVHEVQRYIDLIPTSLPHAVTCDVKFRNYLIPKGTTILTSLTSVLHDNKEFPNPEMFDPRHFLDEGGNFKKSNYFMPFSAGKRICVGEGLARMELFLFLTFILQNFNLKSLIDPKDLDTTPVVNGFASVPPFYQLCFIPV

BTK = BTK (Homo sapiens (Human), UniProt Q06187); test: BTK inhibition in a biochemical assay, relative to acalabrutinib
Sequence of BTK (Q06187 whole entry, species assumed): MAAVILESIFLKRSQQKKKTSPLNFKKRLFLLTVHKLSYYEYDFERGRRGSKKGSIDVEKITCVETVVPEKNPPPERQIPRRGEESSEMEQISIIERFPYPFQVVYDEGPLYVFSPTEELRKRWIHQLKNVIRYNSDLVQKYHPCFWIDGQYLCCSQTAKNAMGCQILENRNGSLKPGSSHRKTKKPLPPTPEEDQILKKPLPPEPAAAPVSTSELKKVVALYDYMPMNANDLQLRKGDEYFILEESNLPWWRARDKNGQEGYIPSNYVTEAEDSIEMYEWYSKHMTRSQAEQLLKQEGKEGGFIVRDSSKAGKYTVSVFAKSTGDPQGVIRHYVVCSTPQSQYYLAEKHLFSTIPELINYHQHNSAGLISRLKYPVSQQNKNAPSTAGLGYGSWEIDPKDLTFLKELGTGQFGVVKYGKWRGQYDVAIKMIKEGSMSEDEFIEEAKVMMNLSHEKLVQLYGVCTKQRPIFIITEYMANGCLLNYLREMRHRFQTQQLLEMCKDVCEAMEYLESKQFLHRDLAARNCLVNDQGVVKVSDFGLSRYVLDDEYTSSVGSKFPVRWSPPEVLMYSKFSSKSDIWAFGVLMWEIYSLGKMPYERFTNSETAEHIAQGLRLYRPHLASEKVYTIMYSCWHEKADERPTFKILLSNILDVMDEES

Structure (SMILES): CC#CC(=O)NCCCC(=O)c1nc(-c2ccc(C(=O)Nc3ccccn3)c(OC)c2)c2c(N)nccn12 [Formula (II), 4-(8-amino-3-(4-(but-2-ynamido)butanoyl)imidazo[1,5-a]pyrazin-1-yl)-2-methoxy-N-(pyridin-2-yl)benzamide]
- EC50 (anti-IgM-induced CD69): 19 ± 6 nM
- EC50 (anti-IgD-induced CD69): 137 ± 36 nM

Structure (SMILES): CC#CC(=O)NCCCC(=O)c1nc(-c2ccc(C(=O)Nc3ccccn3)cc2)c2c(N)nccn12 [Formula (I), 4-(8-amino-3-(4-(but-2-ynamido)butanoyl)imidazo[1,5-a]pyrazin-1-yl)-N-(pyridin-2-yl)benzamide]
- CYP3A4 induction (CYP3A4): weak inducer
- CYP2C19 inhibition (CYP2C19): weak inhibitor
- EC50 (anti-IgM-induced CD69): 26 ± 16 nM
- EC50 (anti-IgD-induced CD69): 64 ± 6 nM
- less potent than acalabrutinib with regard to BTK inhibition (BTK): approximately 50%
